Results reported in patent US10543159B2, “Hair papilla cell activator” (Ezaki Glico Co., Ltd., priority 2014, dated 2020).

Key:
[1] = tested on: human follicle dermal papilla cells; assay: Follicle dermal papilla cell proliferation, Cell Counting Kit-F cell count (Example 2); format: cell-based; conditions: concentration series of Table 1A, 3 days
Method: A strain (Lot. 3092504.12) sold by PromoCell (Germany) was used as human follicle dermal papilla cells. The cells were cultured in a CO2 incubator at 37° C., using a special medium for follicle dermal papilla cells (PromoCell), unless otherwise indicated. Cell subculturing was performed as follows: cells were seeded at 5000 to 10000 cells/cm^2 in an uncoated dish, and when the cells reached subconfluent, they were treated with trypsin-EDTA (0.03%) and detached, and then re-seeded. […] The medium was replaced about once every 3 days.
1. The procedures (1) and (3) to (5) in Example 1 were performed in the same manner as described above. Solutions of the compositions shown in the following table were prepared in a concentration series starting from a 10% (w/v) aqueous solution of POs-Ca (R), a 12.9% (w/v) aqueous solution of G1P-Ca, a 1.84% (w/v) aqueous solution of CaCl2.2H2O, or a 10% (w/v) aqueous solution of POs-Na.
2. In place of the conditions ((6), (7) and (8)) in Example 1, Cell Counting Kit-F (Dojindo Molecular Technologies, Inc.) was added to each well in accordance with the manual, and the number of cells was counted.

[2] = tested on: Wnt5a; assay: Quantitative PCR gene expression in follicle dermal papilla cells: Wnt5a; format: cell-based, human; conditions: Example 3: 0.25% POs-Ca (R) or CaCl2 of equivalent calcium, DMEM, 37° C., 5 hours; Dunnett, n=6
Method: (1) 500 μl of a special medium in which 4×10^4 cells/ml of follicle dermal papilla cells were suspended was dispensed into a type I collagen-coated 24-well cell culture plate (Corning), and cultured at a cell density of 1.0×10^4 cells/cm^2 at 37° C. for 42 hours. […] Each of the solutions (a) to (c) was mixed with DMEM high glucose (Sigma, USA) at a ratio of 1:9.
(3) The medium was aspirated from each well obtained in (1), the well was washed by adding 1 ml of 1×PBS (137 mM NaCl, 8.1 mM Na2HPO4, 2.68 mM KCl, 1.47 mM KH2PO4 (pH 7.4); Wako Pure Chemical Industries, Ltd.), and aspirating the PBS, 500 μl of DMEM high glucose was added, and the cells were incubated in a CO2 incubator at 37° C. for 5 hours. […]
(4) The medium was removed from each well, and then mRNA was extracted using CellAmp Direct RNA Prep Kit for RT-PCR (Takara). The method was performed in accordance with the manual for the kit.
(5) 8 μl of the extracted mRNA solution (200 μl for each well) was used, and cDNA was obtained by the reverse transcription reaction at a scale of 40 μl, using PrimeScript RT Master Mix (Takara). The reaction conditions were as set forth in the manual for the kit.
(6) 0.5 μl of each of cDNA solutions diluted 2-fold with water, 1 μl of a solution containing 4 μM of each of primers 1 and 2 for each of the genes shown in Table 2, 5 μl of SYBR Premix Ex Taq II (Takara), and 3.5 μl of water were added, and quantitative PCR was performed on each of the genes. Using CFX96 Touch (BIO-RAD, USA), denaturation treatment at 95° C. for 30 seconds was performed, and then a two-step cycle at 95° C. for 5 seconds and at 62° C. for 20 seconds was performed for 65 cycles. Fluorescence intensity after each cycle was measured.
(7) Using PGK1 and GAPDH as reference genes, a comparative analysis of expression levels was performed with the analysis software (Bio-Rad CFX Manager 3.0) included in CFX96Touch. Relative expression levels were calculated under the default conditions of the software. […]

[3] = tested on: ALPL; assay: Quantitative PCR gene expression in follicle dermal papilla cells: ALPL; format: cell-based, human; conditions: Example 3: 0.25% POs-Ca (R) or CaCl2 of equivalent calcium, DMEM, 37° C., 5 hours; Dunnett, n=6
Method: (§1) (1) 500 μl of a special medium in which 4×10^4 cells/ml of follicle dermal papilla cells were suspended was dispensed into a type I collagen-coated 24-well cell culture plate (Corning), and cultured at a cell density of 1.0×10^4 cells/cm^2 at 37° C. for 42 hours. (2) (a) Water (control), (b) a 2.5% (w/v) aqueous solution of POs-Ca (R), and (c) a 0.457% aqueous solution of CaCl2 (having an equivalent amount of calcium to that of (b)) were prepared. Each of the solutions (a) to (c) was mixed with DMEM high glucose (Sigma, USA) at a ratio of 1:9. […]
(§2) (6) 0.5 μl of each of cDNA solutions diluted 2-fold with water, 1 μl of a solution containing 4 μM of each of primers 1 and 2 for each of the genes shown in Table 2, 5 μl of SYBR Premix Ex Taq II (Takara), and 3.5 μl of water were added, and quantitative PCR was performed on each of the genes. […] Fluorescence intensity after each cycle was measured.
(§3) (8) The average value of calculated expression levels was determined for the six samples derived from the cells treated under the respective conditions, and defined as the expression level relative to the control.

[4] = tested on: tenascin C; assay: Quantitative PCR gene expression in follicle dermal papilla cells: tenascin C; format: cell-based, human; conditions: Example 3: 0.25% POs-Ca (R) or CaCl2 of equivalent calcium, DMEM, 37° C., 5 hours; Dunnett, n=6
Method: as §1, §2, §3

[5] = tested on: fibronectin; assay: Quantitative PCR gene expression in follicle dermal papilla cells: fibronectin; format: cell-based, human; conditions: Example 3: 0.25% POs-Ca (R) or CaCl2 of equivalent calcium, DMEM, 37° C., 5 hours; Dunnett, n=6
Method: as §1, §2, §3

[6] = tested on: VEGF; assay: Quantitative PCR gene expression in follicle dermal papilla cells: VEGF; format: cell-based, human; conditions: Example 3: 0.25% POs-Ca (R) or CaCl2 of equivalent calcium, DMEM, 37° C., 5 hours; Dunnett, n=6
[7] = tested on: VEGFB; assay: Quantitative PCR gene expression in follicle dermal papilla cells: VEGFB; format: cell-based, human; conditions: Example 3: 0.25% POs-Ca (R) or CaCl2 of equivalent calcium, DMEM, 37° C., 5 hours; Dunnett, n=6
Method: as §1, §2, §3

O.O.[Ca+2].[Cl-].[Cl-] [CaCl2, calcium chloride dihydrate]
number of cells compared to that without addition [1]: not observed | expression of Wnt5a gene compared to control [2]: significant increases in the expression of genes were not observed | expression of ALPL gene compared to control [3]: significant increases in the expression of genes were not observed | expression of tenascin C gene compared to control [4]: significant increases in the expression of genes were not observed | expression of fibronectin gene compared to control [5]: significantly decreased | expression of VEGF gene compared to control [6]: significant increases in the expression of genes were not observed | expression of VEGFB compared to control [7]: significantly increased
